In PMC9953224, “Pharmacokinetic Evaluation of New Drugs Using a Multi-Labelling Approach and PET Imaging: Application to a Drug Candidate with Potential Application in Neuromuscular Disorders” (Biomedicines, 2023):
“Also recorded” adds a separate entry of the source. Read-outs that look alike come from different tables or passages of the source.

Experiments:
FKBP12 = biological target: T1, FKBP12 (Homo sapiens, UniProt P62942); assay: Competitive ligand binding assay (FKBP/FRB NanoBiT luminescence protein complementation) in HEK293 cells; assay type: cell-based
T1 construct: host or cells: HEK293
T1 sequence (P62942 whole entry): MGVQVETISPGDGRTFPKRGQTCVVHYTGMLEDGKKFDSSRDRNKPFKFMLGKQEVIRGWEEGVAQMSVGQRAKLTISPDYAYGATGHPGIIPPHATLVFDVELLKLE
Method: Briefly, HEK293 (ATCC) cells were transfected with FKBP/FRB NanoBiT Control Pair (Promega, Madison, WI, USA) and kinetic measurements were performed 24 h after transfection with Nano-Glo Live Cell Reagent (Promega), as described by the manufacturer. A total of 30 nM rapamycin (Sigma-Aldrich, Madrid, Spain) and AHK2 (1 μM–10 mM) was sequentially added and each effect was recorded for 10 min. Specific activity was normalized to vehicle, and IC50 was calculated using GraphPad Prism by fitting the data to a four-parameter logistic curve.

FKBP12/RyR interaction = biological target: T2, FKBP12/RyR interaction (Homo sapiens, UniProt P62942); assay: In situ proximity ligation assay (PLA) in human myotubes under nitro-oxidative stress; assay type: cell-based; settings: human myotubes challenged with peroxynitrite donor SIN1 (5 mM, 30 min)
T2 construct: endogenous in cells; host or cells: immortalized human myoblasts differentiated into myotubes
Method: In situ PLA was used for evaluation of FKBP12/RyR stability in human myotubes under nitro-oxidative stress, as previously described. Briefly, immortalized human myoblasts (Myology Institute, Paris, France) were differentiated into myotubes and nitro-oxidative stress was induced by addition of the peroxynitrite donor 3-morpholinosydnonimine (SIN1, 5 mM, SCBT, Heidelberg, Germany) for 30 min. Myotubes were fixed with 4% paraformaldehyde (Aname, Madrid, Spain) and incubated overnight with the following primary antibodies: anti-RyR mouse mAb (1:200, Thermo Scientific, Waltham, MA, USA), and anti-FKBP12 rabbit pAb (1:100, Novus Biologicals, Centennial, CO, USA). The Duolink in situ PLA Orange assay kit was used with corresponding conjugated secondary antibodies (Sigma). Samples were counterstained with FITC-conjugated Myosin Heavy Chain-CFS mAb (MyHC, 1:50, R&D, Minneapolis, MN, USA) and mounted with ProLong Gold antifade reagent (Life Technologies, Eugene, OR, USA). Image quantification was performed with ImageJ (NIH). For each image, the total number of spots was normalized to the MyHC area. At least 3 images per condition were analysed with an average of 8–9 myotubes per image. Statistical significance was determined using One-Way ANOVA followed by Dunett’s multiple comparisons test. p-values < 0.05 were considered statistically significant.

[1] = Pharmacokinetics from metabolite-corrected arterial plasma TACs after oral administration; assay type: in vivo, Sprague Dawley Rats; settings: for MRT / half-life: Sprague Dawley, rat, arterial plasma; for MRT: read-out: MRT mean residence time (converted); for half-life: read-out: t1/2 terminal half-life
Method: Anaesthesia was induced with 5% isoflurane (IsoFlo®, Abbott Laboratories, Abbott Park, IL, USA) and maintained by 2% of isoflurane in 100% O2. During the experiment, rats were kept normothermic using a heating blanket (Homeothermic Blanket Control Unit; Bruker). The rat was positioned in supine position on an operating table and the two distal hind limbs were fixed forming an approximately 30° angle with the horizontal plane. The surgical region was scrubbed using Betadine, starting in the centre, and making a circular sweep outward. A skin incision was made in the femoral region. Soft tissue was dissected to expose the femoral neurovascular bundle, consisting of femoral vein, artery, and nerve. Fine tip forceps were placed between the artery, vein and nerve and were slowly opened to separate the vessels, exposing an approximately 1 cm length section of artery/vein. The vena profunda femoris was sutured to avoid retrograde bleeding via this vessel, and the sapheno-femoral junction was cauterized. A few millimetres from venatomy, a vascular clip was inserted in the direction of the catheter (to control the flow) and a suture was applied in the opposite direction (to avoid retrograde bleeding). The same operation was carried out both on the femoral vein and femoral artery. An appropriate syringe filled with 50 U/mL Heparin/physiologic saline solution was fixed at the terminus of the catheters and these were filled with heparinized saline solution. On the upper half of the vessel circumference, at a 45° angle, an incision was made and the catheter (fine bore polythene tubing: ID 0.58 mm, OD 0.98 mm) was inserted through the venotomy and advanced to the vascular clip. The vascular clip was then removed, and the catheter advanced distally towards the level of the inguinal ligament. The catheter was finally secured to the femoral vein/artery proximally and distally with 2 single knots using 4–0 braided silk suture. The catheters were connected to an in-house developed system composed by a peristaltic pump and gamma-radiation coincidence detector (Bioscan, B-FC-4100). The femoral artery catheter, the gamma detector, the peristaltic pump, and the femoral vein catheter were thus connected in series, to enable the extracorporeal circulation of blood (flow 150 μL/s from femoral artery to femoral vein) and continuous measurement of radioactivity in the blood (Figure 1).
The labelled compounds were administrated two different ways: (i) intravenous bolus infusion (ca. 37 MBq in 300 μL of saline solution was injected through the femoral vein catheter) and (ii) oral bolus administration. For oral administration, animals were fasted for 5 h. The radioactive dose (ca. 74 MBq in 300 μL of saline solution) was administered using flexible 20-gauge disposable flexible PTFE feeding needles (Fine Science Tools, F.S.T.) and a small animal Laryngoscope (Penn-Century, Model LS-2) for the correct visualization of the oesophagus. The study was conducted under no carrier added (NCA, dose adjusted to 1 μg/Kg) and carrier added (CA, dose adjusted to 5 mg/Kg) conditions. In all cases, data were imported in real time to an excel sheet using PLX-DAX add-on for Microsoft Excel (measured in volts per second).
Arterial blood samples (1 per animal) were withdrawn (see Figure 1) from the femoral artery catheter and introduced into a capillary (Microhaematocrit capillaries 75 × 1.55, Nahita). Samples were centrifuged at 11,000× g […] for 10 min and the haematocrit was determined. A second blood sample was withdrawn and the amount of radioactivity of a fixed volume (10 µL) was measured in an automatic gamma counter (2470 Wizard, PerkinElmer) to determine Cb (concentration of radioactivity in blood) and convert data imported with PLX-DAX (Volts per seconds) into Bq/s using a previously determined calibration curve. Values were then expressed as percentage of injected dose per gram of blood (% ID/g). […]

[2] = both groups (1 µg/Kg and 5 mg/Kg) pooled together

IC50 (FKBP12; 30 nM rapamycin, AHK2 1 μM–10 mM, read-out: IC50, displacement of rapamycin from FKBP12 (inhibition of FKBP12-Rapamycin-FRB interaction)): 2.98 mM
increase of FKBP12/RyR interaction (stabilization) (FKBP12/RyR interaction): 89%
AUC area under the curve ([1]; 1 µg/Kg): 6.68 ± 4.35 %IDxs/mL
Cl plasma clearance ([1]; 1 µg/Kg): 4.23 ± 3.58 mL/s
Vz volume of distribution based on the terminal slope ([1]; 1 µg/Kg): 2728.14 ± 1252.35 mL
AUC area under the curve ([1]; 5 mg/Kg): 13.35 ± 5.08 %IDxs/mL
Cl plasma clearance ([1]; 5 mg/Kg): 1.57 ± 0.69 mL/s
Vz volume of distribution based on the terminal slope ([1]; 5 mg/Kg): 1624.28 ± 1299.35 mL
MRT ([1]; 1 ug/kg): 8.51 min
half-life ([1]; 1 ug/kg): 9.16 ± 3.78 min
MRT ([1]; 5 mg/Kg): 9.36 min
half-life ([1]; 5 mg/Kg): 13 ± 11.1 min
MRT [1, 2]: 9 min
half-life [1, 2]: 11.3 ± 8.44 min
AUC area under the curve [1, 2]: 10.49 ± 5.65 %IDxs/mL
Cl plasma clearance [1, 2]: 2.71 ± 2.55 mL/s
Vz volume of distribution based on the terminal slope [1, 2]: 2097.36 ± 1309.61 mL
Compound: COc1ccc(SCc2cn(CCN(C)C)nn2)cc1 [AHK2, 1-[2-(N,N-dimethylamino)ethyl]-4-[(4-methoxyphenyl)thiomethyl]-1H-1,2,3-triazole]
induction of FKBP12/FRB dimerization (luminescence) (FKBP12; rapamycin 30 nM): did not induce FKBP12/FRB dimerization; also recorded: not able to induce FKBP12/FRB dimerization
